Test results taken from PubChem BioAssay AID190 (DTP/NCI, 2004).
Where “and” joins values, the source holds several entries; their conditions need not be identical. Identical values can stand only once. Inconclusive results and toxic doses are left out.

Tested on: AKR/Lw mice, AKR lymphoma ip, median survival T/C
Assay: NCI In Vivo Anticancer Drug Screen. Data for tumor model Lymphoma AKR (Transplanted) (intraperitoneal) in AKR/Lw mice
Conditions: endpoint: median survival time, higher = longer survival
Method: The antitumor activity of compounds was measured in mice bearing transplantable tumors. Survival or tumor size were measured and the results are expressed as the measurement made in the treated group (T) divided by the measurement made in the vehicle treated control group (C). The tumor model used in this assay is Lymphoma AKR (Transplanted) (intraperitoneal) in AKR/Lw mice

[1] = dose: 100.0 mg/kg/injection, schedule: Q01DX001 (ip), vehicle: saline
[2] = dose: 200.0 mg/kg/injection, schedule: Q01DX001 (ip), vehicle: saline
[3] = dose: 100.0 mg/kg/injection, schedule: Q01DX001 (ip), vehicle: Klucel (hydroxypropylcellulose) (HPC)
[4] = dose: 200.0 mg/kg/injection, schedule: Q01DX001 (ip), vehicle: Klucel (hydroxypropylcellulose) (HPC)
[5] = dose: 400.0 mg/kg/injection, schedule: Q01DX001 (ip), vehicle: Klucel (hydroxypropylcellulose) (HPC)

In the case of C[C@@H]1C[C@H]2[C@@H]3CCC4=CC(=O)C=C[C@]4(C)[C@@]3(F)[C@@H](O)C[C@]2(C)[C@@]1(O)C(=O)CO, the T/C (dose: 0.25 mg/kg/injection, schedule: Q01DX004 (sc), vehicle: saline) is reported as 121 % of control, the T/C (dose: 0.5 mg/kg/injection, schedule: Q01DX004 (sc), vehicle: saline) is reported as 103 % of control and 110 % of control and the T/C (dose: 1.0 mg/kg/injection, schedule: Q01DX004 (sc), vehicle: saline) is reported as 103 % of control and 121 % of control. The T/C (dose: 1.8 mg/kg/injection, schedule: Q01DX004 (sc), vehicle: saline) was 89 % of control, the T/C (dose: 2.6 mg/kg/injection, schedule: Q01DX004 (sc), vehicle: saline) was 103 % of control and the T/C (dose: 4.0 mg/kg/injection, schedule: Q01DX004 (sc), vehicle: saline) was 103 % of control. For the same compound, the T/C (dose: 4.5 mg/kg/injection, schedule: Q01DX004 (sc), vehicle: saline) was 96 % of control.

With COC(=O)C(COS(=O)(=O)c1ccccc1)NC(=O)OCc1ccccc1 (stereo not given) the T/C [1] was 94 % of control, the T/C [2] was 97 % of control and the T/C (dose: 400.0 mg/kg/injection, schedule: Q01DX001 (ip), vehicle: saline) was 102 % of control.

With NC(=S)N/N=C/c1ccc(O)cn1 the T/C (dose: 3.12 mg/kg/injection, schedule: Q01DX009 (ip), vehicle: Klucel (hydroxypropylcellulose) (HPC)) was 116 % of control, the T/C (dose: 12.5 mg/kg/injection, schedule: Q01DX009 (ip), vehicle: Klucel (hydroxypropylcellulose) (HPC)) was 214 % of control and the T/C (dose: 20.0 mg/kg/injection, schedule: Q06HX008 (ip), vehicle: Klucel (hydroxypropylcellulose) (HPC)) was 115 % of control. The T/C (dose: 20.0 mg/kg/injection, schedule: Q06HX012 (ip), vehicle: Klucel (hydroxypropylcellulose) (HPC)) was 115 % of control, the T/C (dose: 25.0 mg/kg/injection, schedule: Q01DX009 (ip), vehicle: Klucel (hydroxypropylcellulose) (HPC)) was 119 % of control and the T/C (dose: 25.0 mg/kg/injection, schedule: Q04DX003 (ip), vehicle: Klucel (hydroxypropylcellulose) (HPC)) was 116 % of control. For the same compound, the T/C (dose: 30.0 mg/kg/injection, schedule: Q06HX008 (ip), vehicle: Klucel (hydroxypropylcellulose) (HPC)) was 107 % of control, the T/C (dose: 31.25 mg/kg/injection, schedule: Q06HX004 (ip), vehicle: saline) was 116 % of control and the T/C (dose: 31.25 mg/kg/injection, schedule: Q06HX012 (ip), vehicle: saline) was 96 % of control. For the same compound, the T/C (dose: 31.25 mg/kg/injection, schedule: Q06HX016 (ip), vehicle: saline) was 113 % of control, the T/C (dose: 40.0 mg/kg/injection, schedule: Q06HX008 (ip), vehicle: Klucel (hydroxypropylcellulose) (HPC)) was 103 % of control and the T/C (dose: 40.0 mg/kg/injection, schedule: Q06HX012 (ip), vehicle: Klucel (hydroxypropylcellulose) (HPC)) was 123 % of control. The T/C (dose: 50.0 mg/kg/injection, schedule: Q01DX009 (ip), vehicle: Klucel (hydroxypropylcellulose) (HPC)) was 110 % of control and 214 % of control, the T/C (dose: 50.0 mg/kg/injection, schedule: Q04DX003 (ip), vehicle: Klucel (hydroxypropylcellulose) (HPC)) was 123 % of control and the T/C (dose: 50.0 mg/kg/injection, schedule: Q06HX008 (ip), vehicle: Klucel (hydroxypropylcellulose) (HPC)) was 88 % of control. The T/C (dose: 50.0 mg/kg/injection, schedule: Q06HX012 (ip), vehicle: Klucel (hydroxypropylcellulose) (HPC)) was 111 % of control, the T/C (dose: 60.0 mg/kg/injection, schedule: Q06HX008 (ip), vehicle: Klucel (hydroxypropylcellulose) (HPC)) was 119 % of control and the T/C (dose: 60.0 mg/kg/injection, schedule: Q06HX012 (ip), vehicle: Klucel (hydroxypropylcellulose) (HPC)) was 103 % of control. The T/C (dose: 62.5 mg/kg/injection, schedule: Q06HX004 (ip), vehicle: saline) was 90 % of control, the T/C (dose: 62.5 mg/kg/injection, schedule: Q06HX008 (ip), vehicle: saline) was 110 % of control and the T/C (dose: 62.5 mg/kg/injection, schedule: Q06HX012 (ip), vehicle: saline) was 113 % of control. The T/C (dose: 62.5 mg/kg/injection, schedule: Q06HX016 (ip), vehicle: saline) was 120 % of control, the T/C (dose: 75.0 mg/kg/injection, schedule: Q01DX009 (ip), vehicle: Klucel (hydroxypropylcellulose) (HPC)) was 173 % of control and the T/C (dose: 100.0 mg/kg/injection, schedule: Q04DX003 (ip), vehicle: Klucel (hydroxypropylcellulose) (HPC)) was 120 % of control. The T/C (dose: 125.0 mg/kg/injection, schedule: Q06HX008 (ip), vehicle: saline) was 96 % of control, the T/C (dose: 125.0 mg/kg/injection, schedule: Q06HX012 (ip), vehicle: saline) was 86 % of control and the T/C (dose: 200.0 mg/kg/injection, schedule: Q04DX003 (ip), vehicle: Klucel (hydroxypropylcellulose) (HPC)) was 123 % of control.

c1ccc2c(c1)CNCc1ccccc1-2 was tested, and the T/C [1] was 97 % of control.

With OCC1C(CO)C2(Cl)C(Cl)=C(Cl)C1(Cl)C2(Cl)Cl (stereo not given) the T/C [3] was 100 % of control, the T/C [4] was 93 % of control and the T/C [5] was 91 % of control.

For COc1cc2ccc(C(C)N)cc2cc1OC (stereo not given), the T/C (dose: 50.0 mg/kg/injection, schedule: Q04DX003 (ip), vehicle: saline) was 105 % of control, the T/C [1] was 98 % of control and the T/C (dose: 100.0 mg/kg/injection, schedule: Q04DX003 (ip), vehicle: saline) was 102 % of control. For the same compound, the T/C [2] was 100 % of control and the T/C (dose: 200.0 mg/kg/injection, schedule: Q04DX003 (ip), vehicle: saline) was 95 % of control.

Cc1ccc(N=C(c2ccc([N+](=O)[O-])cc2)c2ccc([N+](=O)[O-])cc2)cc1 was tested, and the T/C (dose: 50.0 mg/kg/injection, schedule: Q01DX001 (ip), vehicle: Klucel (hydroxypropylcellulose) (HPC)) was 105 % of control, the T/C [3] was 96 % of control and the T/C [4] was 93 % of control and 100 % of control. For the same compound, the T/C [5] was 100 % of control.
